Results published in patent publication US9662310B2, “Cyclopropanecarboxylic acid derivative” (DAIICHI SANKYO COMPANY, LIMITED, priority 2010, dated 2017).
Counter-ions that a name gives are not always drawn.

Each compound was assayed against TAFIa (Homo sapiens (Human), UniProt Q96IY4) (assay: Determination of TAFIa enzyme inhibitory activity (FAAK substrate degradation)). Details: TAFI activated with human thrombin / rabbit lung thrombomodulin; substrate FAAK, absorbance at 330 nm; read-out: TAFIa IC50.
Type: biochemical
Method: Determination of TAFIa Enzyme Inhibitory Activity
HEPES buffered saline (20 mM HEPES, 150 mM NaCl, pH 7.4; hereinafter, referred to as HBS) was used in the preparation of a reaction solution. To 12 μL of a 250 μg/mL TAFI solution, 30 μL of an HBS solution containing 4 U/mL human thrombin, 12 U/mL rabbit lung thrombomodulin, and 12 mM CaCl2 was added, and the mixture was gently stirred. Then, TAFI was activated at room temperature. Ten minutes later, thrombin was neutralized by the addition of 10 μL of 100 μM PPACK (thrombin inhibitor) to terminate the activation of TAFI. The formed TAFIa was stored in ice and diluted immediately before use in determination with 2050 μL of an HBS solution containing BSA (bovine serum albumin) adjusted to 0.1% in terms of the final concentration.
(2) Determination of TAFIa Inhibitory Activity
A test substance was dissolved in HBS to prepare a 10-fold dilution series of evaluation concentrations. 80 μL of the TAFIa solution and 10 μL of the test substance were added to each well of a 96-well plate and mixed by shaking for 10 minutes. 10 μL of furylacryloyl-alanyl-lysine (FAAK) adjusted to 5 mg/mL was added to each well, and the change in the absorbance of this mixed solution at 330 nm was read for 30 minutes to determine the degradation rate of the substrate.
(3) Calculation of Inhibitory Activity IC50
The degradation rate of the substrate in each well was applied to a standard curve prepared using the dilution series of the TAFIa solution to calculate TAFIa activity.

TAFIa, sequence (Q96IY4 115-423): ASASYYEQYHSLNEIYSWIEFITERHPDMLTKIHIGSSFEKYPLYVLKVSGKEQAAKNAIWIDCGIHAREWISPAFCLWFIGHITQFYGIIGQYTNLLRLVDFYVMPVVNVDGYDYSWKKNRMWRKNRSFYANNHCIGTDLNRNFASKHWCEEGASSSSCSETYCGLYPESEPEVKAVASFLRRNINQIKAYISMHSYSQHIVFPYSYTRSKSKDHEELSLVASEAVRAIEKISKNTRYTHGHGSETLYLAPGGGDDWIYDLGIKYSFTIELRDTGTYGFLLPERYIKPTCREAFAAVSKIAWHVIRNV

| SMILES | IC50 |
| --- | --- |
| Cc1ccc(-n2cnc([C@]3(C(=O)O)C[C@H]3C[C@@H](C)CN)c2)nc1 [Example 59, (1S,2R)-2-[(2R)-3-Amino-2-methylpropyl]-1-[1-(5-methylpyridin-2-yl)-1H-imidazol-4-yl]cyclopropanecarboxylic acid] | 500 nM |
| NCCC[C@H]1C[C@]1(C(=O)O)c1cn(-c2ccccn2)cn1 (relative stereo) [Example 25, (1R*,2S*)-2-(3-Aminopropyl)-1-(1-pyridin-2-yl-1H-imidazol-4-yl)cyclopropanecarboxylic acid] | 29 nM |
| C[C@H](CN)C[C@H]1C[C@]1(C(=O)O)c1cn(-c2ccccc2)cn1 [Example 51, (1R,2S)-2-[(2S)-3-Amino-2-methylpropyl]-1-(1-phenyl-1H-imidazol-4-yl)cyclopropanecarboxylic acid] | 35 nM |
| NCCC[C@H]1C[C@]1(C(=O)O)c1cn(/C=C/c2ccccc2)cn1 (relative stereo) [Example 14, (1R*,2S*)-2-(3-Aminopropyl)-1-{1-[(E)-2-phenylvinyl]-1H-imidazol-4-yl}cyclopropanecarboxylic acid] | 99 nM |
| CC(C)(C)CCn1cnc([C@]2(C(=O)O)C[C@H]2CCCN)c1 [Example 27, (1S,2R)-2-(3-Aminopropyl)-1-[1-(3,3-dimethylbutyl)-1H-imidazol-4-yl]cyclopropanecarboxylic acid] | > 100 nM |
| NCCC[C@H]1C[C@]1(C(=O)O)c1cn(-c2ccccc2Cl)cn1 (relative stereo) [Example 20, (1R*,2S*)-2-(3-Aminopropyl)-1-[1-(2-chlorophenyl)-1H-imidazol-4-yl]cyclopropanecarboxylic acid hydrochloride] | 140 nM |
| NCCC[C@@H]1C[C@@]1(C(=O)O)c1cn(-c2ccccc2)cn1 [Example 29, (1S,2R)-2-(3-Aminopropyl)-1-(1-phenyl-1H-imidazol-4-yl)cyclopropanecarboxylic acid] | > 10000 nM |
| NCCC[C@H]1C[C@]1(C(=O)O)c1cn(-c2ccc(O)nc2)cn1 (relative stereo) [Example 35, (1R*,2S*)-2-(3-Aminopropyl)-1-[1-(6-hydroxypyridin-3-yl)-1H-imidazol-4-yl]cyclopropanecarboxylic acid] | 340 nM |
| NCCC[C@H]1C[C@]1(C(=O)O)c1cn(-c2cccs2)cn1 (relative stereo) [Example 37, (1R*,2S*)-2-(3-Aminopropyl)-1-[1-(2-thienyl)-1H-imidazol-4-yl]cyclopropanecarboxylic acid dihydrochloride] | 100 nM |
| NCCC[C@H]1C[C@]1(C(=O)O)c1cn(-c2ccc(C(F)(F)F)cc2)cn1 (relative stereo) [Example 13, (1R*,2S*)-2-(3-Aminopropyl)-1-{1-[4-(trifluoromethyl)phenyl]-1H-imidazol-4-yl}cyclopropanecarboxylic acid] | 140 nM |

The remaining lines, values ahead:

| IC50 | SMILES |
| --- | --- |
| 27 nM | NCCC[C@H]1C[C@]1(C(=O)O)c1cn(-c2ccc3ccccc3c2)cn1 (relative stereo) [Example 21, (1R*,2S*)-2-(3-Aminopropyl)-1-[1-(2-naphthyl)-1H-imidazol-4-yl]cyclopropanecarboxylic acid] |
| 19 nM | Cc1ccnc(-n2cnc([C@@]3(C(=O)O)C[C@@H]3CCCN)c2)c1 (relative stereo) [Example 64, (1R*,2S*)-2-(3-Aminopropyl)-1-[1-(4-methylpyridin-2-yl)-1H-imidazol-4-yl]cyclopropanecarboxylic acid] |
| 29 nM | NCCC[C@H]1C[C@]1(C(=O)O)c1cn(C2CCCCC2)cn1 (relative stereo) [Example 4, (1R*,2S*)-2-(3-Aminopropyl)-1-(1-cyclohexyl-1H-imidazol-4-yl)cyclopropanecarboxylic acid] |
| 18 nM | Cc1ccc(-n2cnc([C@@]3(C(=O)O)C[C@@H]3CCCN)c2)nc1 (relative stereo) [Example 49, (1R*,2S*)-2-(3-Aminopropyl)-1-[1-(5-methylpyridin-2-yl)-1H-imidazol-4-yl]cyclopropanecarboxylic acid] |
| 58 nM | NCCC[C@H]1C[C@]1(C(=O)O)c1cn(-c2ccc3ccccc3n2)cn1 (relative stereo) [Example 42, (1R*,2S*)-2-(3-Aminopropyl)-1-(1-quinolin-2-yl-1H-imidazol-4-yl)cyclopropanecarboxylic acid] |
| 19 nM | NCCC[C@H]1C[C@]1(C(=O)O)c1cn(-c2ccc(F)cn2)cn1 (relative stereo) [Example 41, (1R*,2S*)-2-(3-Aminopropyl)-1-[1-(5-fluoropyridin-2-yl)-1H-imidazol-4-yl]cyclopropanecarboxylic acid] |
| 73 nM | Cc1cccc(-n2cnc([C@@]3(C(=O)O)C[C@@H]3CCCN)c2)n1 (relative stereo) [Example 65, (1R*,2S*)-2-(3-Aminopropyl)-1-[1-(6-methylpyridin-2-yl)-1H-imidazol-4-yl]cyclopropanecarboxylic acid] |
| 31 nM | CCc1ccc(-n2cnc([C@@]3(C(=O)O)C[C@@H]3CCCN)c2)cc1 (relative stereo) [Example 11, (1R*,2S*)-2-(3-Aminopropyl)-1-[1-(4-ethylphenyl)-1H-imidazol-4-yl]cyclopropanecarboxylic acid] |
| 16 nM | COc1ccc(-n2cnc([C@@]3(C(=O)O)C[C@@H]3CCCN)c2)nc1 (relative stereo) [Example 44, (1R*,2S*)-2-(3-Aminopropyl)-1-[1-(5-methoxypyridin-2-yl)-1H-imidazol-4-yl]cyclopropanecarboxylic acid] |
| 29 nM | N#Cc1ccc(-n2cnc([C@@]3(C(=O)O)C[C@@H]3CCCN)c2)cc1 (relative stereo) [Example 40, (1R*,2S*)-2-(3-Aminopropyl)-1-[1-(4-cyanophenyl)-1H-imidazol-4-yl]cyclopropanecarboxylic acid] |
| 14 nM | C[C@H]1CC[C@H](n2cnc([C@@]3(C(=O)O)C[C@@H]3CCCN)c2)CC1 (relative stereo) [Example 5, (1R*,2S*)-2-(3-Aminopropyl)-1-[1-(trans-4-methylcyclohexyl)-1H-imidazol-4-yl]cyclopropanecarboxylic acid] |
| 36 nM | COc1ccc(-n2cnc([C@@]3(C(=O)O)C[C@@H]3CCCN)c2)cc1 (relative stereo) [Example 12, (1R*,2S*)-2-(3-Aminopropyl)-1-[1-(4-methoxyphenyl)-1H-imidazol-4-yl]cyclopropanecarboxylic acid] |
| 40 nM | NCCC[C@H]1C[C@]1(C(=O)O)c1cn(-c2cccc(F)c2)cn1 (relative stereo) [Example 22, (1R*,2S*)-2-(3-Aminopropyl)-1-[1-(3-fluorophenyl)-1H-imidazol-4-yl]cyclopropanecarboxylic acid] |

Same assay, conditions: TAFIa IC50

| IC50 | SMILES |
| --- | --- |
| 420 nM | CC(C)(C)CCn1cnc(C2(C(=O)O)CC2CCCN)c1 (single isomer, unassigned) [Example 2, (1R*,2R*)-2-(3-Aminopropyl)-1-[1-(3,3-dimethylbutyl)-1H-imidazol-4-yl]cyclopropanecarboxylic acid] |
| 8.7 nM | CC(C)(C)CCn1cnc(C2(C(=O)O)CC2CCCN)c1 (single isomer, unassigned) [Example 1, (1R*,2S*)-2-(3-Aminopropyl)-1-[1-(3,3-dimethylbutyl)-1H-imidazol-4-yl]cyclopropanecarboxylic acid] |

Same assay, conditions: read-out: TAFIa IC50

| SMILES | IC50 |
| --- | --- |
| CCC(CN)CC1C[C@]1(C(=O)O)c1cn(-c2ccccc2)cn1 (stereo partly drawn) [Example 53, (1R,2S)-2-[(2-Aminomethyl)butyl]-1-(1-phenyl-1H-imidazol-4-yl]cyclopropanecarboxylic acid] | 13 nM |
